Settings: rat; liver microsomes; pH 7.4; 15.0 min; 1.0 µM
With O=C(O)c1cccc(-c2noc(-c3ccccc3F)n2)c1 the half-life was > 30 min. Cc1nc(N2CCN(c3ccccn3)CC2)c2c(C)c(C(=O)Nc3ccc(F)cc3Cl)sc2n1 showed a half-life of 10.2 min. For CCOc1ccccc1C(=O)Nc1ccccc1C(=O)Nc1cccc(S(=O)(=O)C(F)(F)F)c1, the half-life was > 30 min. With COc1ccc(NC(=O)c2[nH]c(C)c(C(C)=O)c2C)cc1 the half-life was > 30 min. With CC(C)C[C@H]1C(=O)N2CCC[C@H]2[C@]2(O)O[C@](NC(=O)[C@@H]3C=C4c5cccc6[nH]c(Br)c(c56)C[C@H]4N(C)C3)(C(C)C)C(=O)N12 the half-life was 1.59 min. For OCCNc1ncnc2c1ncn2[C@@H]1O[C@@H](CO)[C@H](O)[C@@H]1O, the half-life was > 30 min. Cc1ccc(S(=O)(=O)Nc2ccccc2C(=O)Nc2ccc(-c3ccccc3)cn2)cc1 gave a half-life of 4.9 min. For O=C(Nc1nc(-c2ccccc2)cs1)c1ccncc1NS(=O)(=O)c1ccc(-c2ccccc2)cc1, the half-life was 2 min. Compound Cc1ccc(SC2=NS(=O)(=O)c3ccccc32)c(C)c1 has a half-life of 1.54 min. In the case of Cc1ccc(-c2nnc(Nc3ccc(Br)cc3)c3ccccc23)cc1S(=O)(=O)N1CCN(C)CC1, the half-life is reported as 1.31 min. For COc1ccc(-n2c(C)cc(C3=NNC(=NC4CC4)SC3)c2C)cc1, the half-life was 11.8 min. With O=C(Nc1nc(-c2ccccc2)cs1)c1ccncc1NS(=O)(=O)c1ccccc1F the half-life was 7 min. For O=C(Nc1ccc([N+](=O)[O-])cc1Cl)c1cc(Cl)ccc1O, the half-life was > 30 min. In the case of O=S(=O)(Nc1ccc(C2CCNCC2)cc1)c1ccc(NCc2cccc(Cl)c2O)cc1, the half-life is reported as 20 min. Work on Cc1cc(C)c(C(=O)Nc2cccc([S+](=O)([O-])N3CCCCC3)c2)[nH]1 yielded a half-life of 3 min. Compound c1ccc2c(Nc3ccc4nc[nH]c4c3)nc(-c3ccncc3)nc2c1 has a half-life of 16 min. For CC(C)(C)C1CCc2c(sc(NC(=O)c3ccncc3)c2C(N)=O)C1 (stereo not drawn), the half-life was > 30 min. With CC(C)Oc1ccc(-c2csc(N3CCC(C(N)=O)CC3)n2)cc1 the half-life was > 30 min. In the case of NC(=O)C1CCN(c2nc(-c3ccccc3Cl)cs2)CC1, the half-life is reported as 4.02 min. Compound O=C1CCCC2=C1C(c1ccncc1Br)N=C(Nc1nc3ccccc3o1)N2 (stereo not drawn) has a half-life of 6.5 min. COC(=O)c1ccc(NS(=O)(=O)c2c(C)nc3sccn3c2=O)cc1 showed a half-life of 3.88 min. Work on CC(C)(C)c1ccc(-c2csc(N3CCC(C(N)=O)CC3)n2)cc1 yielded a half-life of 13.9 min. In the case of CC#CC(=O)N1CCC[C@H]1c1nc(-c2ccc(C(=O)Nc3ccccn3)cc2)c2c(N)nccn12, the half-life is reported as 19.4 min. In the case of COc1ccc(S(=O)(=O)N2CCOCC2)cc1NC(=O)c1cccc(-n2cccc2)c1, the half-life is reported as 3.37 min. Work on Cc1ccc(-c2nnc(N3CCC(C(N)=O)CC3)s2)cc1 yielded a half-life of 6.38 min. With COC(=O)c1ccc(Nc2nc(-c3ccncc3)nc3ccccc23)cc1OC the half-life was 9.5 min. CCCCCCCC/C=C\CCCCCCCC(=O)NCCO gave a half-life of 2.33 min. Compound Cn1cc(C2=C(c3cn(CCCSC(=N)N)c4ccccc34)C(=O)NC2=O)c2ccccc21 has a half-life of 4.4 min. NC(=O)C1CCN(c2nc(-c3cccc(Br)c3)cs2)CC1 showed a half-life of 1.77 min. Work on CC(=O)OCCN1C(=O)c2c(C)nc3ccc(S(=O)(=O)N4CCOCC4)cc3c2C1=O yielded a half-life of 2.05 min. In the case of C#Cc1ccc(NC(=O)c2cnn3c(C)cc(C)nc23)cc1, the half-life is reported as 25.5 min. Cc1cccc(C)c1Nc1c(-c2ccccn2)nc2ccc(Cl)cn12 gave a half-life of 1.86 min. COC(=O)c1ccccc1C(=O)Nc1nc(-c2ccccc2)cs1 gave a half-life of 3 min. With Fc1ccc(Nc2nc(-c3ccnc(C(F)(F)F)c3)nc3ccccc23)cc1F the half-life was > 30 min. For COc1ccc(OC)c(-c2nnc3ccc(-c4ccc(OC)c(O[C@@H]5CCOC5)c4)nn23)c1, the half-life was 5.5 min. CC(C)COc1ccc(-c2ccc(=O)n(CC(=O)NCCc3ccccc3)n2)cc1 gave a half-life of 1.8 min. COc1ccc(CCN2C(=O)N(c3ccc(F)cc3)C(=O)C2CC(=O)Nc2ccc(F)c(F)c2)cc1 (stereo not drawn) gave a half-life of 4.04 min. In the case of COc1cccc(CNCc2cccn2-c2nnc(N3CCN(c4ccccc4)CC3)s2)c1, the half-life is reported as 2.06 min. With CC(=O)Nc1cccc(Nc2nc3ccccc3n3c(C)nnc23)c1 the half-life was > 30 min. With Fc1ccc(Nc2nc(-c3ccncc3)ncc2-c2ccccc2)cc1F the half-life was 27 min. For CN1Cc2c(cc(N3CCOCC3)nc2-c2ccccc2OC(F)(F)F)C1=O, the half-life was > 30 min. In the case of Cn1c2ccccc2c(=O)c2c(=O)n(-c3ccccc3)c(C3CCCCC3)nc21, the half-life is reported as > 30 min. With O=[S+]([O-])(Nc1nccs1)c1ccc(NCc2cccc3c2NCC3)cc1 the half-life was > 30 min. With COc1ccc(C)cc1Nc1c2c(nc3ccccc13)CCC2 the half-life was 1.55 min. In the case of CC(C)N(CCC(=O)c1ccc2ccccc2c1)Cc1ccccc1, the half-life is reported as 1.65 min. In the case of Nc1nc2c(s1)C(c1ccccc1)CC(=O)N2 (stereo not drawn), the half-life is reported as > 30 min. For O=C1c2ccccc2C2=Nc3ccccc3SC(c3ccccc3F)C12 (stereo not drawn), the half-life was 3.11 min. CCCCOC(=O)c1ccnc2cc(C(OCCN3CCCCC3)c3ccccc3Cl)sc12 (stereo not drawn) gave a half-life of 3.32 min. Compound CCOC(=O)N1CCN(Cc2nc3c(c(=O)n(C)c(=O)n3C)n2Cc2cccc(C)c2)CC1 has a half-life of 4.9 min. With Cc1cccc(S(=O)(=O)c2cn(Cc3ccccc3)c3cc(N4CCCCC4C)c(F)cc3c2=O)c1 (stereo not drawn) the half-life was 2 min. Work on CCOc1ccc(NC(=O)CSC2=Nc3ccccc3C3=NC(CC(=O)NCc4cccs4)C(=O)N23)cc1 (stereo not drawn) yielded a half-life of 4.16 min. For COc1ccc(-n2nc(C)c([C@@H]3C=C[C@@H](NCc4cccc(Cl)c4)C3)c2C)cc1, the half-life was 4.19 min. CCc1cccc(NC(=O)C(Cc2ccccc2)NS(=O)(=O)c2cccs2)c1 (stereo not drawn) showed a half-life of 1.44 min. With NC(=O)C1CCN(c2nc(-c3ccccc3F)cs2)CC1 the half-life was 3.04 min. Cc1ccc(S(=O)(=O)Nc2ccc(C)cc2C(=O)Nc2nc(-c3ccccc3)cs2)cc1 showed a half-life of 3.7 min. For O=C1Nc2cc(Cl)ccc2Nc2cscc21, the half-life was 21.8 min. With Cc1cc(C)nc(NC(=S)N2CCN(c3cc(C(F)(F)F)nc4ccc(C(F)(F)F)cc34)CC2)c1 the half-life was > 30 min. Cc1ccc(Nc2nc(NCCO)c3ccccc3n2)cc1C gave a half-life of 2.42 min. O=C1CCCC2=C1C1(CCCC1)N=C(Nc1nc3ccccc3o1)N2 showed a half-life of 2.7 min. In the case of Cc1cc(NS(=O)(=O)c2ccc(NC(=O)c3oc4ccccc4c3C)cc2)nc(C)n1, the half-life is reported as > 30 min. In the case of CC1(C)CC(=O)C2=C(C1)NC(Nc1nc3ccccc3o1)=NC2c1ccccc1Cl (stereo not drawn), the half-life is reported as 11 min. With Nc1cc2nc3ccccc3oc-2cc1=O the half-life was 8.63 min. CC(C=CC(=O)NO)=C[C@@H](C)C(=O)c1ccc(N(C)C)cc1 gave a half-life of 4.06 min. CN(C)CCCn1cc(C2=C(c3c[nH]c4ccccc34)C(=O)NC2=O)c2ccccc21 showed a half-life of 10.5 min. O=C(CSc1nc(-c2ccc(F)cc2)[nH]c1-c1ccc(F)cc1)Nc1ccc2c(c1)OCCO2 gave a half-life of 1.19 min. Work on O=C1CCc2cc(S(=O)(=O)Nc3ccc(F)c(Cl)c3)c(F)cc2N1 yielded a half-life of 16.8 min. Work on COc1ccc(C2c3c(ncn(CCN4CCOCC4)c3=N)Oc3ccc4ccccc4c32)cc1OC (stereo not drawn) yielded a half-life of 3.6 min. Work on COc1cccc(-c2csc(N3CCC(C(N)=O)CC3)n2)c1 yielded a half-life of 1.33 min. CCN1C(=O)c2ccccc2[S@](=O)c2ccc(C(=O)N[C@H](C)c3ccc(Br)cc3)cc21 showed a half-life of 7.7 min. Compound COc1cccc(-c2nc(-c3c(C)noc3C)cc3[nH]c(C)cc23)c1OC has a half-life of 10.2 min. With COc1ccc2[nH]c(=O)c(-c3noc(-c4ccc(F)cc4)n3)cc2c1 the half-life was > 30 min. Compound Cc1ccc(S(=O)(=O)Nc2ccccc2C(=O)Nc2ncc(-c3ccccc3)o2)cc1 has a half-life of 3.5 min. Cc1cc(-c2nnc3n2CCCCC3)c(C)n1-c1cccc2ccccc12 gave a half-life of 2.1 min. Compound O=S(=O)(Nc1ccc2ccccc2c1)c1ccc(NCc2cccc(Cl)c2O)cc1 has a half-life of 13 min. In the case of O=C(c1ccc(-c2ncc3cnc(-c4ccccc4)cn23)cc1)N1CCS(=O)(=O)CC1, the half-life is reported as > 30 min. Cc1ccc(-c2cc(C(=O)Nc3ccc(-n4cccn4)cc3)c3ccccc3n2)cc1C showed a half-life of 9.1 min. With CCOC(=O)N1CCc2c(sc(NCc3ccc(N(C)C)cc3)c2C(=O)Nc2ccc(OC)cc2)C1 the half-life was > 30 min. In the case of Cc1ccc(S(=O)(=O)Nc2ccccc2Nc2nc(-c3ccccc3)cs2)cc1, the half-life is reported as 1.7 min. For FC(F)(F)c1ccccc1-c1nc(NCc2cccc3ccccc23)c2ccccc2n1, the half-life was 4.33 min. In the case of O=C(Nc1ccccc1O)c1ccc(NC(=O)C2CC2)cc1, the half-life is reported as > 30 min. Work on CCN(CC)CCOc1ccc(Cc2ccccc2)cc1 yielded a half-life of 1.73 min. With COc1ccc(C(=O)c2sc(Nc3cccc(Cl)c3)nc2N)cc1 the half-life was 5.07 min. For CC(C)(C)c1ccc(C(=O)Nc2cn3cc(-n4ccnc4)ccc3n2)cc1, the half-life was > 30 min. In the case of CCN1CCN(C(=O)c2cc(-c3ccc(F)cc3)c3nncn3n2)CC1, the half-life is reported as > 30 min. With CN1C(=O)C(=O)N2C(=C[C@]3(c4c[nH]c5ccccc45)c4ccccc4N[C@H]23)C1=O the half-life was 4.83 min. NC(=O)C1CCN(c2nc(-c3ccc(Cl)cc3)cs2)CC1 gave a half-life of 3.09 min. Cc1cc2c(-c3cccc(O)c3)nc(-c3c(C)noc3C)cc2[nH]1 showed a half-life of 24.2 min. With O=C(Nc1ccccc1-c1cn2c(CN3CCNCC3)csc2n1)c1cnc2ccccc2n1 the half-life was > 30 min. With Cc1ccc(NS(=O)(=O)c2ccccc2C(=O)Nc2nc(-c3ccccc3)cs2)cc1 the half-life was 15 min. For O=C(CCc1ccccc1)NC(c1cccs1)c1cc(Cl)c2cccnc2c1O (stereo not drawn), the half-life was 2.14 min. For Nc1nc2c(s1)C(c1ccc(F)cc1F)CC(=O)N2 (stereo not drawn), the half-life was > 30 min. For COc1cccc(OC)c1C(=O)Nc1ccccc1C(=O)Nc1cccc(C(F)(F)F)c1, the half-life was 3.11 min. With O=C(NCCc1ccccc1)C1CCN(c2nc(-c3ccc(Br)cc3)cs2)CC1 the half-life was 1.71 min. Cc1cc(Nc2nc(-c3ccncc3)nc3ccccc23)n[nH]1 gave a half-life of 7.3 min. For CC1=C(C(=O)Nc2ccccc2Cl)C(c2ccccc2Br)N=C(Nc2nc3ccccc3o2)N1 (stereo not drawn), the half-life was > 30 min. For NCC(=O)Nc1ccc(Cl)cc1C(=O)c1ccc[nH]1, the half-life was > 30 min. Work on Cc1ccc(C(=O)N2CCc3cc(-c4nc(NC(=O)Cc5ccc6c(c5)OCO6)sc4C)ccc32)cc1 yielded a half-life of 6 min. CCC(CC)c1cc([C@H]2CN3CC[C@H]2C[C@@H]3CNC(C)=O)nc(-c2ccncc2)n1 gave a half-life of 10.9 min. Compound CNC(=O)C1=C(C)NC(Nc2nc3ccccc3o2)=NC1c1[nH]ncc1Cl (stereo not drawn) has a half-life of 5.7 min. In the case of COc1ccc(-c2nc3sc(CCNC(=O)C(C)(C)C)c(C)n3n2)cc1, the half-life is reported as 9.33 min. With COC(=O)C1=C(C)NC(C)=C(C(=O)OCCCN2CCC(c3ccccc3)(c3ccccc3)CC2)C1c1cccc([N+](=O)[O-])c1 (stereo not drawn) the half-life was 5.13 min. COc1nccc(-c2nc(Nc3ccc(F)c(F)c3)c3ccccc3n2)c1OC showed a half-life of 26 min. With COc1c(C)cc(NC(=O)c2nn(Cc3ccc(F)cc3)c3c2CN(C(=O)c2ccc[nH]2)C[C@]3(C)C(N)=O)cc1C the half-life was > 30 min.

Reference: PubChem BioAssay AID1508591
